Key:
Canidae = settings: oral
Homo sapiens = settings: clinical; oral; M; clinical signs
Macaca mulatta = settings: chronic; duration: 1 years; oral; gavage; M/F; clinical signs
Tagia sp. = settings: acute, mortality
Typhlodromus pyri [1] = settings: not reported; mortality
Aphidius rhopalosiphi [2] = experiment: LR50; higher = less toxic; settings: not reported; mortality
[3] = reproduction developmental
Aphidius rhopalosiphi [4] = settings: not reported; mortality
Colinus virginianus = settings: acute; oral; mortality
Oncorhynchus mykiss = settings: acute; duration: 96 hours; mortality
Typhlodromus pyri [5] = experiment: LR50; higher = less toxic; settings: not reported; mortality
Anser anser = settings: not reported; oral; feed; mortality
Coturnix coturnix = settings: repeat dose other; food consumption
Gallus gallus = settings: subchronic; duration: 8 weeks; oral; diet; hematological
Meleagris sp. = settings: chronic/long-term; duration: 20 weeks; oral; feed; body weight
Perdix sp. = settings: not reported; mortality

Question: What does the source list for `CC(CCc1ccc(O)cc1)NCC(O)c1ccc(O)cc1.Cl` (stereo not given) [Ractopamine hydrochloride]?
Answer: NOAEL (Canidae; acute, M/F, Beagle, clinical signs): 0.002 mg/kg-day; NOEL (Homo sapiens): 0.067 mg/kg-day; NOAEL (Macaca mulatta): 0.125 mg/kg-day

Question: For `COP(=O)(OC)C(O)C(Cl)(Cl)Cl` (stereo not given) [Trichlorfon], which LD50 (Rattus norvegicus; acute, oral, F, mortality) is on record?
Answer: 212 mg/kg-day

Question: What about the NOAEL (Rattus norvegicus; chronic, oral, M) of the same compound?
Answer: 13.2 mg/kg-day

Question: What about the LC50 (Tagia sp.; duration: 14 days) of the same compound?
Answer: 140 mg/kg

Question: What about the LEL (Typhlodromus pyri [1]) of the same compound?
Answer: 1200 g/ha

Question: What about the LR50 (Aphidius rhopalosiphi [2]) of the same compound?
Answer: 0.519 g/ha

Question: Which NOAEL [3] does the source give for `CC1=CC1` [1-Methylcyclopropene] here?
Answer: 22.4 mg/kg-day

Question: And the LEL (Aphidius rhopalosiphi [4])?
Answer: 10 mg/kg

Question: What about the NOAEL (Canidae; subchronic, duration: 90 days, Dog Other, hematological) of the same compound?
Answer: 22.4 mg/kg-day

Question: What about the LD50 (Colinus virginianus) of the same compound?
Answer: > 81 mg/kg-day

Question: What about the LC50 (Oncorhynchus mykiss) of the same compound?
Answer: > 0.966 µg/mL

Question: And the LC50 (Rattus norvegicus; acute, inhalation, mortality)?
Answer: > 2.5 µg/mL

Question: What about the LD50 (Rattus norvegicus; acute, oral, mortality) of the same compound?
Answer: > 235 mg/kg-day

Question: And the NOAEL (Rattus norvegicus; reproduction developmental)?
Answer: 543 mg/kg-day

Question: And the NOAEL (Rattus norvegicus; reproduction developmental, inhalation)?
Answer: 6.5 mg/kg-day

Question: And the NOAEL (Rattus norvegicus; reproduction developmental, oral, diet, body weight)?
Answer: 3.8 mg/kg-day

Question: What about the NOAEL (Rattus norvegicus; short-term, duration: 3 weeks, inhalation, M) of the same compound?
Answer: 68 mg/kg-day

Question: And the NOAEL (Rattus norvegicus; subchronic, duration: 90 days, inhalation, M, hematological)?
Answer: 9 mg/kg-day

Question: And the LD50 (Tagia sp.)?
Answer: > 4.41 ppm

Question: What about the LEL (Typhlodromus pyri [1]) of the same compound?
Answer: 10 mg/kg

Question: And the LR50 (Typhlodromus pyri [5])?
Answer: > 10 ppm

Question: For `Br.O=C(C[C@H]1NCCC[C@@H]1O)Cn1cnc2cc(Br)c(Cl)cc2c1=O` [Halofuginone hydrobromide], which LEL (Anser anser) is on record?
Answer: 3 mg/kg

Question: And the LEL (Coturnix coturnix)?
Answer: 3 mg/kg-day

Question: What about the LEL (Gallus gallus) of the same compound?
Answer: 6 mg/kg-day

Question: What about the LEL (Meleagris sp.) of the same compound?
Answer: 9 mg/kg

Question: And the LEL (Oryctolagus sp.; repeat dose other, food consumption)?
Answer: 3 mg/kg-day

Question: What about the NOEL (Oryctolagus sp.; reproduction developmental, body weight) of the same compound?
Answer: 0.03 mg/kg-day

Question: What about the LEL (Perdix sp.) of the same compound?
Answer: 3 mg/kg
